Measurements taken from the supplement of paper PMC10307832.

How the values were obtained:
Experiment in all cases: relative viability (nuclei count vs DMSO), 5 days (fraction); higher = more cells survive
[1] = test system: A-427
How it was run: (§1)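 Relative viability is defined as nuclei in treated wells over nuclei in vehicle wells. Duplicate plates were run and medians reported. Lung cancer cell lines in 1536-well plates were dosed by pin tool one day after seeding, with one drug or with a fixed anchor-drug dose plus five library-drug doses (not always all listed) in √10 steps, and nuclei were counted after 5 days.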

[2] = test system: CAL-12T
How it was run: as §1

[3] = test system: COR-L 105
How it was run: as §1

[4] = test system: COR-L23
How it was run: as §1

[5] = test system: EPLC-272H
How it was run: as §1

[6] = test system: HOP-62
How it was run: as §1

[7] = test system: LXF-289
How it was run: as §1

[8] = test system: NCI-H1395
How it was run: as §1

[9] = test system: NCI-H1651
How it was run: as §1

[10] = test system: NCI-H1975
How it was run: as §1

[11] = test system: NCI-H1993
How it was run: as §1

[12] = test system: NCI-H2023
How it was run: as §1

[13] = test system: NCI-H2085
How it was run: as §1

[14] = test system: NCI-H2087
How it was run: as §1

[15] = test system: NCI-H2170
How it was run: as §1

[16] = test system: NCI-H3122
How it was run: as §1

[17] = test system: NCI-H596
How it was run: as §1

[18] = test system: NCI-H647
How it was run: as §1

[19] = test system: NCI-H650
How it was run: as §1

[20] = test system: PC-14
How it was run: as §1

[21] = test system: RERF-LC-KJ
How it was run: as §1

[22] = test system: SK-MES-1
How it was run: as §1

In the case of Cc1cnc(-c2cnc(NCCNc3ccc(C#N)cn3)nc2-c2ccc(Cl)cc2Cl)[nH]1 + CS(=O)(=O)CCNCc1ccc(-c2ccc3ncnc(Nc4ccc(OCc5cccc(F)c5)c(Cl)c4)c3c2)o1 [Lapatinib] (partner 2 µM), the relative viability ([1]; first compound 0.08 µM) is reported as 1.03, the relative viability ([1]; first compound 0.253 µM) is reported as 0.942 and the relative viability ([1]; first compound 0.8 µM) is reported as 1.09. For the same molecule, the relative viability ([1]; first compound 2.53 µM) was 1.03, the relative viability ([2]; first compound 0.253 µM) was 0.64 and the relative viability ([2]; first compound 2.53 µM) was 0.627. For the same molecule, the relative viability ([3]; first compound 0.08 µM) was 0.397, the relative viability ([3]; first compound 0.253 µM) was 0.348 and the relative viability ([3]; first compound 0.8 µM) was 0.318. The relative viability ([3]; first compound 2.53 µM) was 0.403, the relative viability ([4]; first compound 0.08 µM) was 0.924 and the relative viability ([4]; first compound 0.253 µM) was 0.856. The relative viability ([4]; first compound 0.8 µM) was 0.862, the relative viability ([4]; first compound 2.53 µM) was 0.905 and the relative viability ([5]; first compound 0.08 µM) was 1.08. It also gave a relative viability ([5]; first compound 0.253 µM) of 0.88, a relative viability ([5]; first compound 0.8 µM) of 0.599 and a relative viability ([5]; first compound 2.53 µM) of 0.946. It also gave a relative viability ([6]; first compound 0.08 µM) of 1.01, a relative viability ([6]; first compound 0.253 µM) of 0.902 and a relative viability ([6]; first compound 0.8 µM) of 1.05. The relative viability ([6]; first compound 2.53 µM) was 1.04, the relative viability ([7]; first compound 0.08 µM) was 0.957 and the relative viability ([7]; first compound 0.253 µM) was 0.806. The relative viability ([7]; first compound 0.8 µM) was 0.896, the relative viability ([7]; first compound 2.53 µM) was 1.04 and the relative viability ([8]; first compound 0.08 µM) was 1.04. The relative viability ([8]; first compound 0.253 µM) was 0.776, the relative viability ([8]; first compound 0.8 µM) was 1.07 and the relative viability ([8]; first compound 2.53 µM) was 0.94. It also gave a relative viability ([9]; first compound 0.08 µM) of 0.937, a relative viability ([9]; first compound 0.253 µM) of 0.712 and a relative viability ([9]; first compound 0.8 µM) of 0.862. The relative viability ([9]; first compound 2.53 µM) was 0.917, the relative viability ([10]; first compound 0.08 µM) was 1.01 and the relative viability ([10]; first compound 0.253 µM) was 0.9. It also gave a relative viability ([10]; first compound 0.8 µM) of 0.694, a relative viability ([10]; first compound 2.53 µM) of 0.558 and a relative viability ([11]; first compound 0.08 µM) of 0.957. The relative viability ([11]; first compound 0.253 µM) was 0.756, the relative viability ([11]; first compound 0.8 µM) was 0.823 and the relative viability ([11]; first compound 2.53 µM) was 0.937. For the same molecule, the relative viability ([12]; first compound 0.08 µM) was 1.23, the relative viability ([12]; first compound 0.253 µM) was 0.431 and the relative viability ([12]; first compound 0.8 µM) was 0.827. It also gave a relative viability ([12]; first compound 2.53 µM) of 0.913, a relative viability ([13]; first compound 0.08 µM) of 0.837 and a relative viability ([13]; first compound 0.253 µM) of 0.8. The relative viability ([13]; first compound 0.8 µM) was 0.786, the relative viability ([13]; first compound 2.53 µM) was 0.848 and the relative viability ([14]; first compound 0.08 µM) was 1.16. It also gave a relative viability ([14]; first compound 0.253 µM) of 0.729, a relative viability ([14]; first compound 0.8 µM) of 1.39 and a relative viability ([14]; first compound 2.53 µM) of 0.979. It also gave a relative viability ([15]; first compound 0.08 µM) of 0.298, a relative viability ([15]; first compound 0.253 µM) of 0.262 and a relative viability ([15]; first compound 0.8 µM) of 0.279. The relative viability ([15]; first compound 2.53 µM) was 0.32, the relative viability ([16]; first compound 0.08 µM) was 0.977 and the relative viability ([16]; first compound 0.253 µM) was 0.933. For the same molecule, the relative viability ([16]; first compound 0.8 µM) was 0.997, the relative viability ([16]; first compound 2.53 µM) was 1.03 and the relative viability ([17]; first compound 0.08 µM) was 1.04. For the same molecule, the relative viability ([17]; first compound 0.253 µM) was 0.994, the relative viability ([17]; first compound 0.8 µM) was 1.09 and the relative viability ([17]; first compound 2.53 µM) was 1.02. For the same molecule, the relative viability ([18]; first compound 0.08 µM) was 1.19, the relative viability ([18]; first compound 0.253 µM) was 0.838 and the relative viability ([18]; first compound 0.8 µM) was 1.02. It also gave a relative viability ([18]; first compound 2.53 µM) of 0.936, a relative viability ([19]; first compound 0.08 µM) of 0.926 and a relative viability ([19]; first compound 0.253 µM) of 1.12. It also gave a relative viability ([19]; first compound 0.8 µM) of 0.478, a relative viability ([19]; first compound 2.53 µM) of 0.789 and a relative viability ([20]; first compound 0.08 µM) of 0.352. The relative viability ([20]; first compound 0.253 µM) was 0.29, the relative viability ([20]; first compound 0.8 µM) was 0.277 and the relative viability ([20]; first compound 2.53 µM) was 0.38. For the same molecule, the relative viability ([21]; first compound 0.08 µM) was 0.902, the relative viability ([21]; first compound 0.253 µM) was 0.777 and the relative viability ([21]; first compound 0.8 µM) was 0.771. For the same molecule, the relative viability ([21]; first compound 2.53 µM) was 0.932, the relative viability ([22]; first compound 0.08 µM) was 0.514 and the relative viability ([22]; first compound 0.253 µM) was 0.474. For the same molecule, the relative viability ([22]; first compound 0.8 µM) was 0.439 and the relative viability ([22]; first compound 2.53 µM) was 0.559.
